Tests used:
[1] = biological target: Adenosylhomocysteinase (Bos taurus); assay: Evaluated for the 50% inhibition of bovine-liver S-Adenosyl-homocysteine (AdoHcy) hydrolase
[2] = biological target: Adenosylhomocysteinase (Bos taurus); assay: as above; remark: listed apart in the source

Ki [1] [nM]	IC50 [2] [nM]	Structure (SMILES)
	1000	Nc1ncnc2c1ncn2CC#CCO
> 1000		Nc1ncnc2c1ncn2C/C=C(\CO)[C@@H](O)CO
166		Nc1nccc2c1ncn2CC=C(CO)CO [2-[2-(4-Amino-imidazo[4,5-c]pyridin-1-yl)-ethylidene]-propane-1,3-diol]
110		Nc1ncnc2c1ncn2CC=C(CO)CO [2-[2-(6-Amino-purin-9-yl)-ethylidene]-propane-1,3-diol]
	1230	Nc1nccc2c1ncn2C/C=C/CO [4-(4-Amino-imidazo[4,5-c]pyridin-1-yl)-but-2-en-1-ol]
200		Nc1nccc2c1ncn2C/C=C\CO [4-(4-Amino-imidazo[4,5-c]pyridin-1-yl)-but-2-en-1-ol]
90		Nc1nccc2c1ncn2C/C=C\[C@@H](O)CO [5-(4-Amino-imidazo[4,5-c]pyridin-1-yl)-pent-3-ene-1,2-diol]
	950	Nc1ncnc2c1ncn2C/C=C/C(O)CO (stereo not given) [5-(6-Amino-purin-9-yl)-pent-3-ene-1,2-diol]
200		Nc1ncnc2c1ncn2C/C=C\[C@@H](O)CO [5-(6-Amino-purin-9-yl)-pent-3-ene-1,2-diol]
	930	CC(C)=CCn1cnc2c(N)ncnc21 [9-(3-Methyl-but-2-enyl)-9H-purin-6-ylamine]

Structure (SMILES)	Ki [1] [nM]	IC50 [2] [nM]
Nc1ncnc2c1ncn2C/C=C\CO	125	
Nc1ncnc2c1ncn2C/C=C/CO	330	
Nc1nccc2c1ncn2CC#CCO [4-(4-Amino-imidazo[4,5-c]pyridin-1-yl)-but-2-yn-1-ol]	160	
C/C(=C/Cn1cnc2c(N)ncnc21)CO [4-(6-Amino-purin-9-yl)-2-methyl-but-2-en-1-ol]	170	
C/C(=C\Cn1cnc2c(N)ncnc21)CO [4-(6-Amino-purin-9-yl)-2-methyl-but-2-en-1-ol]	500	

Reference: BindingDB's records for doi:10.1021/jm00117a011 (University of Kansas, 1988)
